Values after ≈ are worked out from the molar mass of the structure shown.
Key:
Assay type in all cases: functional, cell-based
J774 [1] = test: Antiproliferative activity against mouse J774 cells after 72 hrs by MTT assay; conditions: J774, 72 h
P388 [2] = test: Antiproliferative activity against mouse P388 cells after 72 hrs by MTT assay; conditions: P388, 72 h
J774 [3] = test: Cytotoxicity against mouse J774 cells after 24 hrs by MTT assay; conditions: J774, 24 h
J774 [4] = test: Antiproliferative activity against mouse J774 cells after 48 hrs by MTT assay; conditions: J774, 48 h
WEHI-164 [5] = test: Antiproliferative activity against mouse WEHI164 cells after 72 hrs by MTT assay; conditions: WEHI-164, 72 h
IGR-1 [6] = test: Antiproliferative activity against human IGR-1 cells after 72 hrs by MTT assay; conditions: IGR-1, 72 h
P388 [7] = test: Antiproliferative activity against mouse P388 cells after 48 hrs by MTT assay; conditions: P388, 48 h
WEHI-164 [8] = test: Antiproliferative activity against mouse WEHI164 cells after 48 hrs by MTT assay; conditions: WEHI-164, 48 h
WEHI-164 [9] = test: Cytotoxicity against mouse WEHI164 cells after 24 hrs by MTT assay; conditions: WEHI-164, 24 h
IGR-1 [10] = test: Antiproliferative activity against human IGR-1 cells after 48 hrs by MTT assay; conditions: IGR-1, 48 h
P388 [11] = test: Cytotoxicity against mouse P388 cells after 24 hrs by MTT assay; conditions: P388, 24 h
IGR-1 [12] = test: Cytotoxicity against human IGR-1 cells after 24 hrs by MTT assay; conditions: IGR-1, 24 h

| Structure (SMILES) | IC50 (J774 [1]) | IC50 (P388 [2]) | IC50 (J774 [3]) | IC50 (J774 [4]) | IC50 (WEHI-164 [5]) | IC50 (IGR-1 [6]) | IC50 (P388 [7]) | IC50 (WEHI-164 [8]) | IC50 (WEHI-164 [9]) | IC50 (IGR-1 [10]) | IC50 (P388 [11]) | IC50 (IGR-1 [12]) |
| --- | --- | --- | --- | --- | --- | --- | --- | --- | --- | --- | --- | --- |
| C[C@@H]1CC[C@@]2(OC1)O[C@H]1C[C@H]3[C@@H]4C[C@@H](O)[C@H]5C[C@@H](O)[C@H](O)C[C@]5(C)[C@H]4CC[C@]3(C)[C@H]1[C@@H]2C [AGIGENIN] | 321 mg/L (≈ 715 µM) | 354 mg/L (≈ 789 µM) | 896 mg/L (≈ 2000 µM) | 655 mg/L (≈ 1460 µM) | 210 mg/L (≈ 468 µM) | 264 mg/L (≈ 588 µM) | 471 mg/L (≈ 1050 µM) | 548 mg/L (≈ 1220 µM) | 836 mg/L (≈ 1860 µM) | 627 mg/L (≈ 1400 µM) | 609 mg/L (≈ 1360 µM) | – |
| Sc1ncnc2nc[nH]c12 [MERCAPTOPURINE ANHYDROUS] | 0.5 mg/L (≈ 3.29 µM) | 0.3 mg/L (≈ 1.97 µM) | 61 mg/L (≈ 401 µM) | 3.6 mg/L (≈ 23.7 µM) | 2.7 mg/L (≈ 17.7 µM) | 1.1 mg/L (≈ 7.23 µM) | 2.1 mg/L (≈ 13.8 µM) | 42 mg/L (≈ 276 µM) | 83 mg/L (≈ 545 µM) | 12.3 mg/L (≈ 80.8 µM) | 37 mg/L (≈ 243 µM) | 51.7 mg/L (≈ 340 µM) |
| C[C@@H]1CC[C@@]2(OC1)O[C@H]1C[C@H]3[C@@H]4C[C@@H](O)[C@H]5C[C@@H](O)[C@@H](O)C[C@]5(C)[C@H]4CC[C@]3(C)[C@H]1[C@@H]2C [PORRIGENIN A] | 270 mg/L (≈ 602 µM) | 115 mg/L (≈ 256 µM) | 754 mg/L (≈ 1680 µM) | 515 mg/L (≈ 1150 µM) | 110 mg/L (≈ 245 µM) | 184 mg/L (≈ 410 µM) | 270 mg/L (≈ 602 µM) | 277 mg/L (≈ 617 µM) | – | 471 mg/L (≈ 1050 µM) | 617 mg/L (≈ 1380 µM) | 942 mg/L (≈ 2100 µM) |
| C[C@@H]1CC[C@@]2(OC1)O[C@H]1C[C@H]3[C@@H]4C[C@@H](O)[C@H]5C[C@@H](O)C(=O)C[C@]5(C)[C@H]4CC[C@]3(C)[C@H]1[C@@H]2C [PORRIGENIN B] | 51 mg/L (≈ 114 µM) | 74 mg/L (≈ 166 µM) | 552 mg/L (≈ 1240 µM) | 111 mg/L (≈ 249 µM) | 92 mg/L (≈ 206 µM) | 45 mg/L (≈ 101 µM) | 185 mg/L (≈ 414 µM) | 344 mg/L (≈ 770 µM) | 655 mg/L (≈ 1470 µM) | 330 mg/L (≈ 739 µM) | 837 mg/L (≈ 1870 µM) | 823 mg/L (≈ 1840 µM) |
